Source: US9999623B2, “Use of substituted 2,3-dihydroimidazo[1,2-c]quinazolines for treating lymphomas” (BAYER PHARMA AKTIENGESELLSCHAFT, priority 2013, dated 2018)
Where a name gives a salt, the structure may show the parent alone.

How the values were obtained:
[1] = tested on: signaling pathways in OCI-Ly3 and HBL-1 cells; assay: Western blot modulation of intracellular signaling pathways; assay type: cell-based, human; settings: 24 h post treatment
Description: Modulation of intracellular pathways were assessed by Western blots at 24 h post treatment with indicated compounds either as single agent or in combination. Antibodies used in this study are AKT (#4685, Cell Signaling), p-AKT (04060, Cell Signaling), ERK (#4695, Cell Signaling), p-ERK (#4376, Cell Signaling), BTK (#3533, Cell Signaling), p-BTK (05082, Cell Signaling), IκBα (#4812, Cell Signaling), p-IκBα (#AF4809, R&D), p-IKKα/β (02078, Cell Signaling), IKKβ (02370, Cell Signaling).

[2] = tested on: DLBCL cell lines; assay: 72-h CellTiter-Glo anti-proliferative assay; assay type: cell-based, human; settings: for anti-proliferative activity profile across DLBCL cell lines: panel of 8 DLBCL cell lines; for IC50: Homo sapiens
Description: Briefly, cells were plated at 250-2000 cells/well of 384-well plates (based on cell lines) in 20 μL of growth medium. For each cell line assayed, cells were plated into a separate plate for determination of luminescence at the t=0 hours and t=72 hour time points. […] Dose plates for t=72 hour time points were treated with compounds diluted into growth medium in a final volume of 30 μL. Cells were then incubated for 72 hours at 37° C. Luminescence values for the t=72 hour samples were determined by adding 30 μL of Promega CellTiter-Glo solution, placing the cells on a shaker for 10 minutes at room temperature, and then reading the luminescence using a Victor luminometer. For data processing, t=0 values are subtracted from those determined for the t=72 hour time points, for both the treated and untreated samples. Percent differences in luminescence between drug treated and controls are used to determine percent inhibition of growth.

[3] = Half-life in mice; settings: mouse, in vivo, iv
[4] = tested on: DLBCL; assay: Initial clinical efficacy in NHL patients (phase I dose-escalation), DLBCL; assay type: in vivo, human; settings: DLBCL patient with SD
[5] = tested on: follicular NHL; assay: Initial clinical efficacy in NHL patients (phase I dose-escalation), follicular NHL; assay type: in vivo, human; settings: patients with PR/patients; PR at end of cycle 2 at 0.8 mg/kg, one case end of cycle 4 at 0.6 mg/kg
Description: A phase I dose-escalation study (Patnaik et al, ASH 2012) established the maximum tolerated dose of COMPOUND OF FORMULA I (0.8 mg/kg) and reported promising activity (6/6 PR) in follicular lymphoma. In the present study we further investigated the activity and safety of COMPOUND OF FORMULA I in patients with indolent or aggressive lymphoma subtypes that have progressed after standard therapy.

[6] = phase I dose-escalation study (Patnaik et al, ASH 2012); cited from earlier work
[7] = tested on: follicular NHL; settings: phase I dose-escalation study (Patnaik et al, ASH 2012); cited from earlier work
[8] = tested on: indolent or aggressive lymphoma; assay: Phase II study, single agent, response by lymphoma subtype; assay type: in vivo, human; settings: for Best response CR/CRu, number of patients / Best response PD, number of patients / Best response PR, number of patients / Best response SD, number of patients: staged patients; for complete RR / overall response rate (RR): interim analysis
Description: In this Phase II study, patients with histologically confirmed indolent or aggressive lymphoma relapsed or refractory to ≥2 prior lines of treatment were eligible. Patients received COMPOUND OF FORMULA I at a dose of 0.8 mg/kg as a 1 hour infusion on days 1, 8 and 15 of a 28-day cycle. Patients continued on therapy until disease progression or unacceptable toxicity. Responses were assessed every two cycles according to the response criteria for lymphoma (Cheson et al, JCO 17:1244, 1999) or the guidelines for diagnosis and treatment of chronic lymphocytic leukemia (CLL; Hallek et al., Blood 111:5446-56, 2008).
As of May 31, 2013, a total of 61 lymphoma patients (27 indolent and 34 aggressive) were enrolled and 56 started study treatment. Patients were similarly distributed among indolent and aggressive cohorts with respect to gender (52% female), median age (68 yr, range 22-90) and ethnicity (76% Caucasian) and were heavily pretreated (median number of prior therapies: 3; prior Rituximab: 84%; prior ASCT: 20%). Other characteristics included advanced stage III-IV in 85% and B symptoms in 17%. The following entities were represented: follicular (FL; n=13); CLL (n=11); marginal zone (MZL; n=3; none re-staged); diffuse large B-cell (DLBCL; n=17); mantle cell (MCL; n=7); transformed (n=5); and peripheral T-cell (PTCL; n=4). At the time of analysis patients had received between 1 and 5 cycles of treatment. Objective responses were seen across histologic subtypes (Table 1). At the time of this interim analysis, the overall response rate (RR) and complete RR were 44% and 22% in FL, 83% and 17% in MCL, and 50% and 0% in PTCL, respectively.

[9] = Phase II study, single agent, safety (adverse events); assay type: in vivo, human
Description: Patients received COMPOUND OF FORMULA I at a dose of 0.8 mg/kg as a 1 hour infusion on days 1, 8 and 15 of a 28-day cycle. Patients continued on therapy until disease progression or unacceptable toxicity.

[10] = tested on: DLBCL; settings: patients with PD/patients; cited from earlier work
[11] = tested on: TMD-8 tumor cells; settings: 20 mg/kg once daily po; day 29
Description: Untreated female 5-6 week old CB17.Scid mice are inoculated with 10×10^6 TMD-8 tumor cells (suspended in 50% Matrigel and 50% Medium) subcutaneously into the flank. Animals are randomized to treatment groups when tumors reach a tumor area of 30-35 mm^2. Treatment is conducted as described in FIG. 5 legend. Tumor area and animal body are recorded three times per week.
Tumor growth was monitored by determination of the tumor area using caliper measurement 3 times weekly. QD, once daily; SD, standard deviation of the mean; TGI, relative tumor growth inhibition vs control (%, tumor area at the end of the study on day 29)

O=C1Nc2nc(-c3c(O)cccc3OCC3CC3)cc([C@@H]3CCCNC3)c2CO1 [BAY Compound B]
feedback activation of p-IKKα/β ([1]; both HBL-1 and OCI-Ly3 cells): Activation of p-IKKα/β
anti-proliferative activity profile across DLBCL cell lines [2]: more active in ABC-DLBCL compared with GCB-DLBCL cell lines

COc1c(OCCCN2CCOCC2)ccc2c1N=C(NC(=O)c1cnc(N)nc1)N1CCN=C21 [COMPOUND A, 2-amino-N-[7-methoxy-8-(3-morpholin-4-ylpropoxy)-2,3-dihydroimidazo[1,2-c]quinazolin-5-yl]pyrimidine-5-carboxamide dihydrochloride]
half-life [3]: ~1 h
tumor reduction [4]: 39%
PR (partial response) in follicular NHL [5]: 6/6

COc1c(OCCCN2CCOCC2)ccc2c1N=C(NC(=O)c1cnc(N)nc1)N1CCN=C21 [COMPOUND OF FORMULA I, 2-amino-N-[7-methoxy-8-(3-morpholin-4-ylpropoxy)-2,3-dihydroimidazo[1,2-c]quinazolin-5-yl]pyrimidine-5-carboxamide]
maximum tolerated dose [6]: 0.8 mg/kg
PR in follicular lymphoma [7]: 6/6
Best response CR/CRu, number of patients ([8]; CLL (n = 9)): 0
Best response PD, number of patients ([8]; CLL (n = 9)): 1
Best response PR, number of patients ([8]; CLL (n = 9)): 4
Best response SD, number of patients ([8]; CLL (n = 9)): 4
Best response CR/CRu, number of patients ([8]; DLBCL (n = 17)): 0
Best response PD, number of patients ([8]; DLBCL (n = 17)): 8
Best response PR, number of patients ([8]; DLBCL (n = 17)): 2
Best response SD, number of patients ([8]; DLBCL (n = 17)): 7
Best response CR/CRu, number of patients ([8]; FL (n = 9)): 2
Best response PD, number of patients ([8]; FL (n = 9)): 0
Best response PR, number of patients ([8]; FL (n = 9)): 2
Best response SD, number of patients ([8]; FL (n = 9)): 5
complete RR ([8]; FL): 22%
overall response rate (RR) ([8]; FL, 0.8 mg/kg days 1, 8, 15 of 28-day cycle): 44%
Best response CR/CRu, number of patients ([8]; MCL (n = 6)): 1
Best response PD, number of patients ([8]; MCL (n = 6)): 1
Best response PR, number of patients ([8]; MCL (n = 6)): 4
Best response SD, number of patients ([8]; MCL (n = 6)): 0
complete RR ([8]; MCL): 17%
overall response rate (RR) ([8]; MCL): 83%
Best response CR/CRu, number of patients ([8]; PTCL (n = 4)): 0
Best response PD, number of patients ([8]; PTCL (n = 4)): 2
Best response PR, number of patients ([8]; PTCL (n = 4)): 2
Best response SD, number of patients ([8]; PTCL (n = 4)): 0
complete RR ([8]; PTCL): 0%
overall response rate (RR) ([8]; PTCL): 50%
Best response CR/CRu, number of patients ([8]; Transformed (n = 5)): 0
Best response PD, number of patients ([8]; Transformed (n = 5)): 2
Best response PR, number of patients ([8]; Transformed (n = 5)): 1
Best response SD, number of patients ([8]; Transformed (n = 5)): 2
clinical activity ([8]; single agent, 1st line, 2nd line, relapsed, refractory lymphoma): clinically active as a single agent
deaths ([9]; 1 progressive disease, 1 acute respiratory insufficiency, 1 Cryptococcal meningitis, 1 sepsis after salvage chemotherapy): Four
toxicity profile ([9]; 1st line, 2nd line, relapsed, refractory lymphoma): acceptable toxicity profile
cases of interstitial pneumonitis ([9]; both resolved following corticosteroid administration): two
Hyperglycemia of any grade ([9]; in vivo): 47%
Withdrawal of study drug due to AEs ([9]; in vivo): 10 patients
colitis ([9]; in vivo): No case of colitis was reported
grade 4 hyperglycemia ([9]; in vivo): no grade 4 hyperglycemia was observed
grade 4 hypertension ([9]; in vivo): no grade 4 hypertension was reported
patients who required a dose reduction ([9]; in vivo): 4 patients
patients who required antihypertensive treatment ([9]; in vivo): Eight
patients who required insulin therapy ([9]; in vivo): Four
Diarrhea of any grade ([9]; of cases): 25%
Grade 3/4 AE diarrhea ([9]; of patients): 5%
Grade 3/4 AE fatigue ([9]; of patients): 5%
Grade 3/4 AE hyperglycemia ([9]; of patients): 13%
Grade 3/4 AE hypertension ([9]; of patients): 31%
Grade 3/4 AE neutropenia ([9]; of patients): 16%
Grade 3 adverse events (AE) ([9]; of patients): 49%
Hypertension of any grade ([9]; of patients): 46%
Withdrawal of study drug due to AEs ([9]; of patients): 16%
grade 4 AE (all neutropenia) ([9]; of patients): 15%

CC[C@H](Nc1ncnc2[nH]cnc12)c1nc2cccc(F)c2c(=O)n1-c1ccccc1 [GS-1101]
PD (progression of disease) in DLBCL patients [10]: 9/9
feedback activation of p-ERK ([1]; HBL-1 cells): Activation of p-ERK
decreased activity with respect to IC50 values ([2]; any mutations downstream of BCR): > 100 fold
anti-proliferative activity profile across DLBCL cell lines [2]: active only in BCR-mutant cell lines without downstream mutations

C=CC(=O)N1CCC[C@@H](n2nc(-c3ccc(Oc4ccccc4)cc3)c3c(N)ncnc32)C1 [ibrutinib]
TGI (rel TA) [11]: 70%
feedback activation of p-ERK ([1]; both HBL-1 and OCI-Ly3 cells): Activation of p-ERK
IC50 ([2]; BCR-mutant cell lines even in the presence of activating NFκB pathway): < 0.03 µM
IC50 ([2]; cell lines without BCR-activating mutations (or complete inactivity)): > 1 µM
